Source: ChEMBL document CHEMBL4765227, “Hit to lead optimization of a series of N-[4-(1,3-benzothiazol-2-yl)phenyl]acetamides as monoacylglycerol lipase inhibitors with potential anticancer activity” (Eur J Med Chem, 2016)

Columns and labels:
Format in all cases: functional
Conditions in all cases: read-out: GI
MDA-MB-231 = test: Growth inhibition of human MDA-MB-231 cells at 10 uM incubated for 48 hrs by sulforhodamine B assay relative to control
NCI-H522 = test: Growth inhibition of human NCI-H522 cells at 10 uM incubated for 48 hrs by sulforhodamine B assay relative to control
MDA-MB-435 = test: Growth inhibition of human MDA-MB-435 cells at 10 uM incubated for 48 hrs by sulforhodamine B assay relative to control
U-251 = test: Growth inhibition of human U-251 cells at 10 uM incubated for 48 hrs by sulforhodamine B assay relative to control
NCI-H226 = test: Growth inhibition of human NCI-H226 cells at 10 uM incubated for 48 hrs by sulforhodamine B assay relative to control
NCI-H23 = test: Growth inhibition of human NCI-H23 cells at 10 uM incubated for 48 hrs by sulforhodamine B assay relative to control
UACC-62 = test: Growth inhibition of human UACC-62 cells at 10 uM incubated for 48 hrs by sulforhodamine B assay relative to control
SR = test: Growth inhibition of human SR cells at 10 uM incubated for 48 hrs by sulforhodamine B assay relative to control
Hs-578T = test: Growth inhibition of human Hs-578T cells at 10 uM incubated for 48 hrs by sulforhodamine B assay relative to control
TK-10 = test: Growth inhibition of human TK-10 cells at 10 uM incubated for 48 hrs by sulforhodamine B assay relative to control
MDA-MB-468 = test: Growth inhibition of human MDA-MB-468 cells at 10 uM incubated for 48 hrs by sulforhodamine B assay relative to control
MCF7 = test: Growth inhibition of human MCF7 cells at 10 uM incubated for 48 hrs by sulforhodamine B assay relative to control
OVCAR-8 = test: Growth inhibition of human OVCAR-8 cells at 10 uM incubated for 48 hrs by sulforhodamine B assay relative to control
UO-31 = test: Growth inhibition of human UO-31 cells at 10 uM incubated for 48 hrs by sulforhodamine B assay relative to control
SF-295 = test: Growth inhibition of human SF-295 cells at 10 uM incubated for 48 hrs by sulforhodamine B assay relative to control
NCI-H322M = test: Growth inhibition of human NCI-H322M cells at 10 uM incubated for 48 hrs by sulforhodamine B assay relative to control
RXF 393 = test: Growth inhibition of human RXF 393 cells at 10 uM incubated for 48 hrs by sulforhodamine B assay relative to control
SN12C = test: Growth inhibition of human SN12C cells at 10 uM incubated for 48 hrs by sulforhodamine B assay relative to control
786-0 = test: Growth inhibition of human 786-0 cells at 10 uM incubated for 48 hrs by sulforhodamine B assay relative to control
OVCAR-3 = test: Growth inhibition of human OVCAR-3 cells at 10 uM incubated for 48 hrs by sulforhodamine B assay relative to control
HL-60(TB) = test: Growth inhibition of human HL-60(TB) cells at 10 uM incubated for 48 hrs by sulforhodamine B assay relative to control
M14 = test: Growth inhibition of human M14 cells at 10 uM incubated for 48 hrs by sulforhodamine B assay relative to control
IGROV-1 = test: Growth inhibition of human IGROV-1 cells at 10 uM incubated for 48 hrs by sulforhodamine B assay relative to control
BT-549 = test: Growth inhibition of human BT-549 cells at 10 uM incubated for 48 hrs by sulforhodamine B assay relative to control
Malme-3M = test: Growth inhibition of human Malme-3M cells at 10 uM incubated for 48 hrs by sulforhodamine B assay relative to control
ACHN = test: Growth inhibition of human ACHN cells at 10 uM incubated for 48 hrs by sulforhodamine B assay relative to control
UACC-257 = test: Growth inhibition of human UACC-257 cells at 10 uM incubated for 48 hrs by sulforhodamine B assay relative to control
K562 = test: Growth inhibition of human K562 cells at 10 uM incubated for 48 hrs by sulforhodamine B assay relative to control
SK-MEL-5 = test: Growth inhibition of human SK-MEL-5 cells at 10 uM incubated for 48 hrs by sulforhodamine B assay relative to control
MOLT-4 = test: Growth inhibition of human MOLT-4 cells at 10 uM incubated for 48 hrs by sulforhodamine B assay relative to control
T47D = test: Growth inhibition of human T47D cells at 10 uM incubated for 48 hrs by sulforhodamine B assay relative to control
DU-145 = test: Growth inhibition of human DU-145 cells at 10 uM incubated for 48 hrs by sulforhodamine B assay relative to control
KM12 = test: Growth inhibition of human KM12 cells at 10 uM incubated for 48 hrs by sulforhodamine B assay relative to control
OVCAR-5 = test: Growth inhibition of human OVCAR-5 cells at 10 uM incubated for 48 hrs by sulforhodamine B assay relative to control
SNB-19 = test: Growth inhibition of human SNB-19 cells at 10 uM incubated for 48 hrs by sulforhodamine B assay relative to control
SF-268 = test: Growth inhibition of human SF-268 cells at 10 uM incubated for 48 hrs by sulforhodamine B assay relative to control
RPMI-8226 = test: Growth inhibition of human RPMI-8226 cells at 10 uM incubated for 48 hrs by sulforhodamine B assay relative to control
HCC 2998 = test: Growth inhibition of human HCC 2998 cells at 10 uM incubated for 48 hrs by sulforhodamine B assay relative to control
A549 = test: Growth inhibition of human A549/ATCC cells at 10 uM incubated for 48 hrs by sulforhodamine B assay relative to control
HT-29 = test: Growth inhibition of human HT-29 cells at 10 uM incubated for 48 hrs by sulforhodamine B assay relative to control
SF-539 = test: Growth inhibition of human SF-539 cells at 10 uM incubated for 48 hrs by sulforhodamine B assay relative to control
OVCAR-4 = test: Growth inhibition of human OVCAR-4 cells at 10 uM incubated for 48 hrs by sulforhodamine B assay relative to control
SK-OV-3 = test: Growth inhibition of human SK-OV-3 cells at 10 uM incubated for 48 hrs by sulforhodamine B assay relative to control
PC-3 = test: Growth inhibition of human PC-3 cells at 10 uM incubated for 48 hrs by sulforhodamine B assay relative to control

O=C(CN1CCOCC1)Nc1ccc(-c2nc3ccccc3s2)cc1
inhibition of growth at 10 µM (MDA-MB-231): 3.16%
inhibition of growth at 10 µM (NCI-H522): 5.46%
inhibition of growth at 10 µM (MDA-MB-435): -7.79%
inhibition of growth at 10 µM (U-251): 10.5%
inhibition of growth at 10 µM (NCI-H226): 4.99%
inhibition of growth at 10 µM (NCI-H23): 4.49%
inhibition of growth at 10 µM (UACC-62): -0.01%
inhibition of growth at 10 µM (SR): -2.12%
inhibition of growth at 10 µM (Hs-578T): -9.77%
inhibition of growth at 10 µM (TK-10): -12%
inhibition of growth at 10 µM (MDA-MB-468): 107%
inhibition of growth at 10 µM (MCF7): 51.2%
inhibition of growth at 10 µM (OVCAR-8): -2.44%
inhibition of growth at 10 µM (UO-31): 4.97%
inhibition of growth at 10 µM (SF-295): 1.81%
inhibition of growth at 10 µM (NCI-H322M): -0.11%
inhibition of growth at 10 µM (RXF 393): -11.4%
inhibition of growth at 10 µM (SN12C): -1.02%
inhibition of growth at 10 µM (786-0): -1.3%
inhibition of growth at 10 µM (OVCAR-3): 3.74%
inhibition of growth at 10 µM (HL-60(TB)): -0.57%
inhibition of growth at 10 µM (M14): -1.15%
inhibition of growth at 10 µM (IGROV-1): -5.69%
inhibition of growth at 10 µM (BT-549): -3.57%
inhibition of growth at 10 µM (Malme-3M): -17%
inhibition of growth at 10 µM (ACHN): -4.03%
inhibition of growth at 10 µM (UACC-257): -1.38%
inhibition of growth at 10 µM (K562): 0.74%
inhibition of growth at 10 µM (SK-MEL-5): 7.27%
inhibition of growth at 10 µM (MOLT-4): 0.57%
inhibition of growth at 10 µM (T47D): 6.73%
inhibition of growth at 10 µM (DU-145): -9.1%
inhibition of growth at 10 µM (KM12): -6.84%
inhibition of growth at 10 µM (OVCAR-5): 6.58%
inhibition of growth at 10 µM (SNB-19): -0.79%
inhibition of growth at 10 µM (SF-268): -10.3%
inhibition of growth at 10 µM (RPMI-8226): 6%
inhibition of growth at 10 µM (HCC 2998): 12%
inhibition of growth at 10 µM (A549): 6.19%
inhibition of growth at 10 µM (HT-29): -3.04%
inhibition of growth at 10 µM (SF-539): 10.3%
inhibition of growth at 10 µM (OVCAR-4): -0.52%
inhibition of growth at 10 µM (SK-OV-3): -21%
inhibition of growth at 10 µM (PC-3): 6.98%

O=C(CNc1nc(-c2ccc(Cl)cc2)cs1)Nc1ccc(-c2nc3ccccc3s2)cc1
inhibition of growth at 10 µM (MDA-MB-231): 15.3%
inhibition of growth at 10 µM (NCI-H522): 6.86%
inhibition of growth at 10 µM (MDA-MB-435): -4.48%
inhibition of growth at 10 µM (U-251): 8.44%
inhibition of growth at 10 µM (NCI-H226): 19.7%
inhibition of growth at 10 µM (NCI-H23): 12.4%
inhibition of growth at 10 µM (UACC-62): 8.08%
inhibition of growth at 10 µM (SR): 10.3%
inhibition of growth at 10 µM (Hs-578T): 8.73%
inhibition of growth at 10 µM (TK-10): 33.5%
inhibition of growth at 10 µM (MDA-MB-468): 140%
inhibition of growth at 10 µM (MCF7): 70.2%
inhibition of growth at 10 µM (OVCAR-8): 2.01%
inhibition of growth at 10 µM (UO-31): 25.1%
inhibition of growth at 10 µM (SF-295): 1.37%
inhibition of growth at 10 µM (NCI-H322M): 8.37%
inhibition of growth at 10 µM (RXF 393): -6.02%
inhibition of growth at 10 µM (SN12C): -0.85%
inhibition of growth at 10 µM (786-0): -9.09%
inhibition of growth at 10 µM (OVCAR-3): 5.97%
inhibition of growth at 10 µM (HL-60(TB)): 0.71%
inhibition of growth at 10 µM (M14): 11.8%
inhibition of growth at 10 µM (IGROV-1): 40.9%
inhibition of growth at 10 µM (BT-549): -6.9%
inhibition of growth at 10 µM (Malme-3M): -1.86%
inhibition of growth at 10 µM (ACHN): -5.08%
inhibition of growth at 10 µM (UACC-257): -0.39%
inhibition of growth at 10 µM (K562): 3.58%
inhibition of growth at 10 µM (SK-MEL-5): 12.3%
inhibition of growth at 10 µM (MOLT-4): 7.26%
inhibition of growth at 10 µM (T47D): 43.9%
inhibition of growth at 10 µM (DU-145): 5.04%
inhibition of growth at 10 µM (KM12): 0.97%
inhibition of growth at 10 µM (OVCAR-5): 9.63%
inhibition of growth at 10 µM (SNB-19): 1.83%
inhibition of growth at 10 µM (SF-268): 9.23%
inhibition of growth at 10 µM (RPMI-8226): 12.6%
inhibition of growth at 10 µM (HCC 2998): 2.47%
inhibition of growth at 10 µM (A549): 0.99%
inhibition of growth at 10 µM (HT-29): -8.34%
inhibition of growth at 10 µM (SF-539): 3.03%
inhibition of growth at 10 µM (OVCAR-4): 29.5%
inhibition of growth at 10 µM (SK-OV-3): 4.97%
inhibition of growth at 10 µM (PC-3): 9.25%
